This is an account of results in publication PMC10691236 (Proceedings of the National Academy of Sciences of the …, 2023).

Where two headings read alike, the source gives them in different places.

In one data set the target is CDK2/cyclin E1 (Homo sapiens, UniProt P24941). The data set can be described thus: CDK2/cyclin E1 ATPase assay (ADP-Glo; phosphorylation of histone H1). On the technique in general: In ADP-Glo the light output rises with the ADP produced.
On the set-up of data set [1]: method as in PMID 27537356. The note with it: isolated from A. fumigatus and P. roseopurpurin; ref [30], [31]; cited from earlier work.
For data set [2], the target named is T1, luciferase-CDK2/cyclin E1 in HEK293 cells (Homo sapiens, UniProt P24941).
T1 construct: NV2641 (CCNE1); host or cells: HEK293 (ATCC CRL-1573)
The data set can be described thus: cell-based. Conditions: for inhibition at 50 µM: nanoBRET, read-out: inhibition at the highest concentration tested (IC50 ND); for IC50: average ± SD, n = 6, read-out: IC50, inhibition of luciferase-CDK2/cyclin E1 nanoBRET signal. The protocol:
HEK293 cells were cultured in Roswell Park Memorial Institute (RPMI) (Invitrogen) with 10% fetal bovine serum (FBS; Invitrogen). For transfection, HEK293 cells were trypsinized and resuspended in Opti-MEM I Reduced Serum, no phenol red medium (Invitrogen) with 1% FBS at a concentration of 2 × 10^5 cells/mL. Five hundred microliters of a 10 μg/mL solution of DNA was prepared by adding 1 μg/mL of CDK2-NanoLuc Fusion Vector (Promega; NV2781) to 9 μg/mL of CCNE1 Expression Vector (Promega; NV2641) in Opti-MEM I Reduced Serum, no phenol red media. Thirty microliters of FuGENE HD Transfection Reagent (Promega) was added to each milliliter of DNA mixture. The lipid-DNA mixture was incubated at room temperature for 20 min.
Posttransfection, the media were replaced with fresh Opti-MEM I Reduced Serum, no phenol red medium. NanoBRET Tracer reagent K-10 […] was added at a concentration of […] (1% DMSO final) along with 0.2% DMSO (± inhibitor). […] Following incubation, plates were removed from the incubator and allowed to equilibrate to room temperature for 15 min. A 3× Complete Substrate Plus Inhibitor Solution was made by adding 30 μL of NanoBRET Nano-Glo Substrate (Promega), 10 μL of Extracellular NanoLuc Inhibitor (Promega), and 4,960 μL of Opti-MEM reduced serum medium, no phenol red (Invitrogen). […] IC50 values were calculated from the dose–response curves using Prism 9 (four-parameter, variable slope). Experiments were performed in triplicate with technical duplicates in each run.
In general terms: Bioluminescence resonance energy transfer reports proximity on the nanometre scale.

Where [3] appears, read: from CDK2/cyclin E1 IC50 values (Fig. 3B).
The mark [4] stands for this setting: read-out: IC50, inhibition of CDK2/cyclin E1-dependent phosphorylation of Histone H1, commercially available depsides and depsidones, n=2.

For the compound `Cc1cc(O)c(C=O)c2c1C(=O)Oc1c(COC(=O)/C=C/C(=O)O)c(O)c(C(=O)O)c(C)c1O2` [Fumarprotocetriaric acid, fumarprotocetraric acid, reference compound], the “effect on luminescence values in CDK2/cyclin E1 ADP-detection assay” value at CDK2/cyclin E1 (commercial compound screen, n=2) is on record as “increased luminescence values”.

As to `CO[C@@]1(C)[C@H](O)C(=O)C(C)=C2OC(=O)c3c(C)cc(O)c(C)c3O[C@@H]21` [compound 1, roseopurpurin C], the cytotoxicity entry in data set [1] is given as “generally cytotoxic”.

In the case of `Cc1cc(O)c(C)c(O)c1C(=O)Oc1cc(C)c(C(=O)O)c(O)c1C` [compound 6, 4-o-demethyl barbatic acid], the inhibition at 50 µM in data set [2] is ≤ 50%. Moreover, the inhibition at 100 µM on CDK2/cyclin E1 (read-out: inhibition at the highest concentration tested (IC50 ND)) is ≤ 50%. Turning to `Cc1cc(O)c(C)c2c1C(=O)Oc1c(C)c(O)c(C(=O)O)c(C)c1O2` [compound 7, hypoprotocetraric acid], the “improvement of potency by addition of the 4-OH, relative to 8” value on CDK2/cyclin E1 (setting [3]) is reported as “approximately ninefold”. On to `Cc1cc(O)c(C)c2c1Oc1c(C)c(O)cc(C)c1C(=O)O2` [compound 8, 3,8-dihydroxy-1,4,6,9-tetramethyl-dibenzo[b,e][1,4]dioxepin-11-one], for which the IC50 turned out to be 27 ± 7 µM in data set [2] and 6.1 ± 0.5 µM on CDK2/cyclin E1.

For the compound `Cc1cc(O)c(C)c2c1C(=O)Oc1c(C)c(O)c(O)c(C)c1O2` [compound 10, roseopurpurin G], the IC50 came to 40 ± 20 µM in data set [2] and 0.7 ± 0.1 µM on CDK2/cyclin E1. In addition, in data set [1], the cytotoxicity entry was “generally cytotoxic”. As for `CO[C@@]1(C)[C@H](O)C(O)=C(C)C(=O)[C@@H]1Oc1cc(C)cc(O)c1C` [compound 11, aculeatusquinone C], in data set [2], the inhibition at 50 µM was ≤ 50%. For the same compound, the IC50 at CDK2/cyclin E1 amounted to 42 ± 2 µM. In addition, at CDK2/cyclin E1 (setting [3]), the “fold reduction in activity/potency relative to 1” value was “approximately 900 fold”. In the case of `C/C=C(/C)c1cc(O)c(C)c2c1Oc1c(C)c(O)cc(/C(C)=C\C)c1C(=O)O2` [folipastatin, reference compound], at CDK2/cyclin E1 (setting [4]), the IC50 is 24 µM. For `C/C=C(\C)c1cc(O)c(C)c2c1Oc1cc(O)cc(C)c1C(=O)O2` [unguinol, Unguinol, reference compound], at CDK2/cyclin E1 (setting [4]), the IC50 was found to be 14 µM.
